Experimental data from patent US5597823A, “Tricyclic substituted hexahydrobenz [e]isoindole alpha-1 adrenergic antagonists” (priority 1995, dated 1997).
Counter-ions that a name gives are not always drawn.

Assays:
[1] = biological target: T1, α-1B adrenoceptor (rat spleen) (Rattus norvegicus, UniProt P15823); experiment: Functional antagonism: phenylephrine (PE)-induced contraction of rat spleen; assay type: cell-based; conditions: vs phenylephrine, Schild plot; for Kb: read-out: pA2 Rat Spleen [α-1B] (converted)
T1 construct: PE-induced contraction of rat spleen; from tissue; host or cells: rat spleen
T1 sequence (P15823 1-515): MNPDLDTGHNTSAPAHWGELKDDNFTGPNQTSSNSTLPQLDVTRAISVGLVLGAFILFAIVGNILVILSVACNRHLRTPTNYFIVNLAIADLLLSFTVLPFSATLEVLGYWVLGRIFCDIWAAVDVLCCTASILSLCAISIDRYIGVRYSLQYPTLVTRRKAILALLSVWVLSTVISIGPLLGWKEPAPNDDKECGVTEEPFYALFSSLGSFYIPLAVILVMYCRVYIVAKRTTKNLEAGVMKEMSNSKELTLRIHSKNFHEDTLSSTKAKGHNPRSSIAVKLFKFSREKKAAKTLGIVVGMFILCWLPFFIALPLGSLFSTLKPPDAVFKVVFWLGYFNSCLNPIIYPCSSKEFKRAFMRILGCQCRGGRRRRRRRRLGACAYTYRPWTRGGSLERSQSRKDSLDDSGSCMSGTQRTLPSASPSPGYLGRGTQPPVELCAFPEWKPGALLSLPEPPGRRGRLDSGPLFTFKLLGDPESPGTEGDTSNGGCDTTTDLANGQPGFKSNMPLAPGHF
Text: (§1) Functional assays indicative of pharmacologically defined α-1 adrenoceptors were used to further characterize compounds. Inhibition of phenylephrine (PE)-induced contraction of canine prostate smooth muscle can be correlated with α-1A adrenoceptor activation. […] For each of these models, agonist dose response curves were repeated against increasing concentrations of test agent to derive a Schild plot [log ([…]) against log (molarity of test agent)] to determine the pA2.

[2] = biological target: T2, α-1A adrenoceptor (rat vas deferens) (Rattus norvegicus, UniProt P43140); experiment: Functional antagonism: phenylephrine (PE)-induced contraction of rat vas deferens; assay type: cell-based; conditions: vs phenylephrine, Schild plot; for Kb: read-out: pA2 Rat Vas Deferens [α-1A] (converted)
T2 construct: PE-induced contraction of rat vas deferens; from tissue; host or cells: rat vas deferens
T2 sequence (P43140 1-466): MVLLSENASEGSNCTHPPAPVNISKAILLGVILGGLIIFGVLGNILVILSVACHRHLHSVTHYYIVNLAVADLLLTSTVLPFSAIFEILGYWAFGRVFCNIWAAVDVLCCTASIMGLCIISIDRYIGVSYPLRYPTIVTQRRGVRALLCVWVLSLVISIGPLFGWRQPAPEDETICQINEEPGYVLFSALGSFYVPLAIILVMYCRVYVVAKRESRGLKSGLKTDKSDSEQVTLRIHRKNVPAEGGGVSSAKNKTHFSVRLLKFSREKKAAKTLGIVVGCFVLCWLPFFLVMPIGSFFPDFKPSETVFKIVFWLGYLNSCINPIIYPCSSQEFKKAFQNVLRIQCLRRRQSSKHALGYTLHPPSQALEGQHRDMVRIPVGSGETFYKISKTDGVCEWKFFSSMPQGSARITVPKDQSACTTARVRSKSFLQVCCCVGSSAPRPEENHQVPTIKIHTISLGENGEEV
Text: as §1

[3] = biological target: T3, α-1A adrenoceptor (dog prostate) (Canis lupus, UniProt A0A8I3NK63); experiment: Functional antagonism: phenylephrine (PE)-induced contraction of canine prostate strips; assay type: cell-based; conditions: Table 2a; vs phenylephrine; Schild plot
T3 sequence (A0A8I3NK63 1-466): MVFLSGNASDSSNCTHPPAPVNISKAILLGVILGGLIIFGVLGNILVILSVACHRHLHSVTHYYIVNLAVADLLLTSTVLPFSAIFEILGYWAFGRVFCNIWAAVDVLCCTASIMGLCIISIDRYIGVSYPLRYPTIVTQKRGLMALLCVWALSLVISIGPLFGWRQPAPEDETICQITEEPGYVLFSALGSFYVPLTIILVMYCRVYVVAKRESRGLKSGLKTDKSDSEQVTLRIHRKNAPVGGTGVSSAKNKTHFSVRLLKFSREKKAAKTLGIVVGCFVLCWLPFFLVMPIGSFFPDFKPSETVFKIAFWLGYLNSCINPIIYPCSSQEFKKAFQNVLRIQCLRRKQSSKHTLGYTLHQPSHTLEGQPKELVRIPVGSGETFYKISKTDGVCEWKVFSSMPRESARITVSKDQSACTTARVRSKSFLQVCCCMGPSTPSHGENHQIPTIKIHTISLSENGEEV
Summary of the method: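 Canine prostate smooth-muscle strips in vitro, contracted by phenylephrine. Agonist dose–response curves repeated at rising test-agent concentrations; pA2 derived by Schild plot […].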

[4] = longer term studies; cited from earlier work

| SMILES | Kb [1] [nM] | Kb [2] [nM] | pA2 Dog Prostate [α-1A] [3] | pA2 Rat Spleen [α-1B] [1] | pA2 Rat Vas Deferens [α-1A] [2] | urinary flow rates and subjective symptom scores [4] |
| --- | --- | --- | --- | --- | --- | --- |
| COc1cccc2c1CC[C@H]1CN(CCn3c(=O)[nH]c4c(sc5ncccc54)c3=O)C[C@@H]21 [Example 31, 3,2-((3aR,9bR)-cis-6-Methoxy-2,3,3a,4,5,9b-hexahydro-[1H]-benz[e]isoindol-1-yl))ethyl]-pyrido[3',2':4,5]thieno[3,2-d]pyrimidine-2,4(1H,3H)-dione hydrochloride] | 17.4 | 2.24 | 8.78 |  |  |  |
| COc1cccc2c1CC[C@H]1CN(CCn3c(=O)[nH]c4c(oc5nccnc54)c3=O)C[C@@H]21 [Example 87, hydrochloride] | 87.1 | 18.2 | 8.67 |  |  |  |
| COc1cccc2c1CC[C@H]1CN(CCn3c(=O)[nH]c4c(sc5nc(Cl)cnc54)c3=O)C[C@@H]21 [Example 88, 3-[2-(cis-(3aR,9bR)-6-Methoxy-2,3,3a,4,5,9b-hexahydro-[1H]-benz[e]isoindol-1-yl)ethyl]-7-chloro-pyrazino[2',3':4,5]thieno[3,2-d]pyrimidine-2,4(1H,3H)-dione hydrochloride] | 44.7 | 1.1 | 9.35 |  |  |  |
| COCCOCCn1c(=O)n(CCN2C[C@@H]3CCc4c(OC)cccc4[C@@H]3C2)c(=O)c2sc3nccnc3c21 [Example 102, hydrochloride] | 17.4 | 3.63 | 8.96 |  |  |  |
| O=c1[nH]c2c(sc3cccnc32)c(=O)n1CCN1C[C@@H]2CCc3c(ccc4c3OCO4)[C@@H]2C1 (relative stereo) [Example 112, dihydrochloride] |  |  | 8.18 | 7.2 | 7.92 |  |
| COc1cccc2c1[C@@H]1CN(CCn3c(=O)[nH]c4c(sc5ccccc54)c3=O)C[C@@H]1CC2 (relative stereo) [Example 5, 3-[2-(cis-9-Methoxy-2,3,3a,4,5,9b-hexahydro-[1H]-benz[e]isoindol-1-yl)ethyl]-[1]benzothieno[3,2-d]pyrimidine-2,4(1H,3H)-dione hydrochloride] | 148 | 13.8 | 7.79 |  |  |  |
| O=C(NC1CCN(CCc2c[nH]c3ccccc23)CC1)c1ccccc1 [indoramin] |  |  |  |  |  | significant improvements in urinary flow rates and subjective symptom scores |
| COc1cccc2c1CC[C@H]1CN(CCn3c(=O)[nH]c4c(sc5ccc(C(=O)N6CCOCC6)cc54)c3=O)C[C@@H]21 [Example 58, hydrochloride] | 36.3 | 4.37 | 9.09 |  |  |  |
| COc1cccc2c1[C@@H]1CN(CCn3c(=O)[nH]c4c(sc5ccccc54)c3=O)C[C@@H]1CC2 [Example 16, hydrochloride] | 56.2 | 10.5 | 8.54 |  |  |  |
| COc1cccc2c1CC[C@H]1CN(CCn3c(=O)[nH]c4c(sc5ccc(O)nc54)c3=O)C[C@@H]21 [Example 107, dihydrochloride] | 37.2 | 20 | 9.22 |  |  |  |
| COc1cccc2c1CC[C@@H]1CN(CCn3c(=O)[nH]c4c(sc5ncccc54)c3=O)C[C@H]21 [Example 75, hydrochloride] | 79.4 | 5.89 | 8.04 |  |  |  |
| COc1cccc2c1CC[C@@H]1CN(CCn3c(=O)[nH]c4c([nH]c5ccccc54)c3=O)C[C@@H]21 (relative stereo) [Example 17, 3-[2-(trans-6-Methoxy-2,3,3a,4,5,9b-hexahydro-[[1H]-benz[e]isoindol-1-yl)ethyl]-1H-pyrimido[5,4-b]indole-2,4(3H,5H)-dione hydrochloride] | 63.1 | 10.7 | 8.29 |  |  |  |
| COc1cccc2c1CC[C@@H]1CN(CCn3c(=O)[nH]c4c(sc5ccccc54)c3=O)C[C@@H]21 (relative stereo) [Example 10, 3-[2-(trans-6-Methoxy-2,3,3a,4,5,9b-hexahydro-[[1H]-benz[e]isoindol-1-yl)ethyl]-[1]benzothieno[3,2-d]pyrimidine-2,4(1H,3H)-dione hydrochloride] | 30.2 | 3.09 | 8.37 |  |  |  |
| COc1cccc2c1CC[C@H]1CN(CCn3c(=O)c4sc5nccnc5c4n(C(C)C)c3=O)C[C@@H]21 [Example 90, hydrochloride] | 26.9 | 1.45 | 9.05 |  |  |  |
| COc1cccc2c1CC[C@H]1CN(CCn3c(=O)[nH]c4c(sc5ccccc54)c3=O)C[C@@H]21 [Example 9, hydrochloride] | 25.7 | 1.95 | 8.63 |  |  |  |
| COc1cccc2c1CC[C@H]1CN(CCn3c(=O)[nH]c4c(ccc5ccccc54)c3=O)C[C@@H]21 (relative stereo) [Example 25, hydrochloride] | 174 | 2.19 | 8.27 |  |  |  |
| COc1cccc2c1CC[C@@H]1CN(CCn3c(=O)[nH]c4c(oc5ccccc54)c3=O)C[C@@H]21 (relative stereo) [Example 18, 3-[2-(trans-6-Methoxy-2,3,3a,4,5,9b-hexahydro-[[1H]-benz[e]isoindol-1-yl)ethyl]-benzofuro[3,2-d]pyrimidine-2,4(1H,3H)-dione hydrochloride] | 13.5 | 13.8 | 8.37 |  |  |  |
| COc1cccc2c1CC[C@H]1CN(CCn3c(=O)[nH]c4c(sc5ncccc54)c3=O)C[C@@H]21 (relative stereo) [Example 23, hydrochloride] | 151 | 5.13 | 8.97 |  |  |  |
| COc1cccc2c1CC[C@H]1CN(CCn3c(=O)[nH]c4c(sc5ccc(C#N)nc54)c3=O)C[C@@H]21 [Example 108, dihydrochloride] | 11.2 | 3.39 | 9.03 |  |  |  |
| COc1cnc2c(n1)sc1c(=O)n(CCN3C[C@@H]4CCc5c(OC)cccc5[C@@H]4C3)c(=O)[nH]c12 [Example 89, hydrochloride] | 7.76 | 1.17 | 9.03 |  |  |  |
| COc1cccc2c1CC[C@H]1CN(CCn3c(=O)[nH]c4c(sc5ccccc54)c3=O)C[C@@H]21 (relative stereo) [Example 1, hydrochloride] | 21.4 | 4.27 | 8.74 |  |  |  |
| COc1cccc2c1CC[C@H]1CN(CCn3c(=O)[nH]c4c(sc5cnccc54)c3=O)C[C@@H]21 [Example 36, dihydrochloride] | 7.94 | 2.51 | 9.71 |  |  |  |
| COc1cccc2c1CC[C@H]1CN(CCn3c(=O)[nH]c4c([nH]c5ccccc54)c3=O)C[C@@H]21 (relative stereo) [Example 14, hydrochloride] | 23.4 | 2.69 | 8.23 |  |  |  |
| COc1cccc2c1CC[C@H]1CN(CCn3c(=O)[nH]c4c(sc5ccc(Cl)nc54)c3=O)C[C@@H]21 [Example 62, dihydrochloride] | 21.9 | 0.724 | 9.24 |  |  |  |
| COc1cccc2c1CC[C@H]1CN(CCn3c(=O)[nH]c4c(sc5nccnc54)c3=O)C[C@@H]21 [Example 39] |  |  | 9.16 | 7.76 | 8.33 |  |
